What is called inhibition is the change of the read-out against control, counted positive when it falls.

For the assay, the target named is T1, His-hMAGL (recombinant polyhistidine tagged human MAGL protein) (Homo sapiens, UniProt Q99685).
T1 construct: made in house; host or cells: E. coli BL21(DE3)
T1 sequence (Q99685 1-303): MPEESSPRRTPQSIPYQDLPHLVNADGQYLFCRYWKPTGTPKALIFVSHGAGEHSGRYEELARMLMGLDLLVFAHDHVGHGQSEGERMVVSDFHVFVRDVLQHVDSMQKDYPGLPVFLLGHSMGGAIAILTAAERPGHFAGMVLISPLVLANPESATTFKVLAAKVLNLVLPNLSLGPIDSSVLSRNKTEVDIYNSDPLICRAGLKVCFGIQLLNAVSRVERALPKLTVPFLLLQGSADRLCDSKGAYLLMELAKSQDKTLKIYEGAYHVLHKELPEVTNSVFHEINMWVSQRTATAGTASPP
Briefly: Measurement of MAGL inhibitory activity (arachidonic acid production from 2-arachidonylglycerol, RapidFire-mass spectrometry). The settings on record: MAGL inhibitory rate at 10 μM test compound; 60 min preincubation with His-hMAGL, 2-arachidonylglycerol substrate, 10 min reaction at room temperature. The class given is biochemical. In short, it runs like this: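 Recombinant His-tagged human MAGL converted 2-arachidonylglycerol to arachidonic acid. Reactions received acetonitrile with 3 μM arachidonic acid-d8 as internal standard, and product was quantified by RapidFire SPE (C4) with negative-mode SRM mass spectrometry. Percent inhibition was calculated against compound-free and enzyme-free controls.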
For `O=C1COc2cc(F)c(C(=O)N3CC(COc4ccc(Br)cc4)C3)cc2N1` [Example 182, 6-((3-((4-bromophenoxy)methyl)azetidin-1-yl)carbonyl)-7-fluoro-2H-1,4-benzoxazin-3(4H)-one], the inhibition at 10 µM came to 98%.

`Cc1ccc(OCC2CN(C(=O)c3cc4c(cc3F)OCC(=O)N4)C2)cc1Cl` [Example 183, 6-((3-((3-chloro-4-methylphenoxy)methyl)azetidin-1-yl)carbonyl)-7-fluoro-2H-1,4-benzoxazin-3(4H)-one]: the inhibition at 10 µM stood at 99%.

On to `Cc1cc(OCC2CN(C(=O)c3cc4c(cc3F)OCC(=O)N4)C2)ccc1Cl` [Example 184, 6-((3-((4-chloro-3-methylphenoxy)methyl)azetidin-1-yl)carbonyl)-7-fluoro-2H-1,4-benzoxazin-3(4H)-one], for which the inhibition at 10 µM worked out at 100%.

In the case of `O=C1COc2cc(F)c(C(=O)N3CC(COc4ccc(Cl)cc4Br)C3)cc2N1` [Example 185, 6-((3-((2-bromo-4-chlorophenoxy)methyl)azetidin-1-yl)carbonyl)-7-fluoro-2H-1,4-benzoxazin-3(4H)-one], the inhibition at 10 µM came to 100%.

For `O=C1COc2cc(F)c(C(=O)N3CCC(COc4cccc5scnc45)CC3)cc2N1` [Example 186, 6-((4-((1,3-benzothiazol-4-yloxy)methyl)piperidin-1-yl)carbonyl)-7-fluoro-2H-1,4-benzoxazin-3(4H)-one], the inhibition at 10 µM worked out at 97%.

For `Cc1nc2c(OCC3CCN(C(=O)c4cc5c(cc4F)OCC(=O)N5)CC3)cccc2s1` [Example 187, 7-fluoro-6-((4-(((2-methyl-1,3-benzothiazol-4-yl)oxy)methyl)piperidin-1-yl)carbonyl)-2H-1,4-benzoxazin-3(4H)-one], the inhibition at 10 µM stood at 98%.

With `O=C1COc2cc(F)c(C(=O)N3CC(COc4ccc(C(F)(F)F)cc4F)C3)cc2N1` [Example 188, 7-fluoro-6-((3-((2-fluoro-4-(trifluoromethyl)phenoxy)methyl)azetidin-1-yl)carbonyl)-2H-1,4-benzoxazin-3(4H)-one], the inhibition at 10 µM amounted to 97%.

With `O=C1COc2cc(F)c(C(=O)N3CC(COc4ccc(Cl)cc4-c4ccccn4)C3)cc2N1` [Example 189, 6-((3-((4-chloro-2-(pyridin-2-yl)phenoxy)methyl)azetidin-1-yl)carbonyl)-7-fluoro-2H-1,4-benzoxazin-3(4H)-one], the inhibition at 10 µM is 102%.

As to `Cc1ccc(-c2cc(Cl)ccc2OCC2CN(C(=O)c3cc4c(cc3F)OCC(=O)N4)C2)cn1` [Example 190, 6-((3-((4-chloro-2-(6-methylpyridin-3-yl)phenoxy)methyl)azetidin-1-yl)carbonyl)-7-fluoro-2H-1,4-benzoxazin-3(4H)-one], the inhibition at 10 µM is 102%.

`Cc1ncccc1-c1cc(Cl)ccc1OCC1CN(C(=O)c2cc3c(cc2F)OCC(=O)N3)C1` [Example 191, 6-((3-((4-chloro-2-(2-methylpyridin-3-yl)phenoxy)methyl)azetidin-1-yl)carbonyl)-7-fluoro-2H-1,4-benzoxazin-3(4H)-one]: the inhibition at 10 µM was 102%.

As for `O=C1COc2cc(F)c(C(=O)N3CC(COc4ccc(Cl)cc4-c4cccnc4)C3)cc2N1` [Example 192, 6-((3-((4-chloro-2-(pyridin-3-yl)phenoxy)methyl)azetidin-1-yl)carbonyl)-7-fluoro-2H-1,4-benzoxazin-3(4H)-one], the inhibition at 10 µM was 99%.

For the molecule `Cc1cc(-c2cc(Cl)ccc2OCC2CN(C(=O)c3cc4c(cc3F)OCC(=O)N4)C2)ccn1` [Example 193, 6-((3-((4-chloro-2-(2-methylpyridin-4-yl)phenoxy)methyl)azetidin-1-yl)carbonyl)-7-fluoro-2H-1,4-benzoxazin-3(4H)-one], the inhibition at 10 µM turned out to be 102%.

For `O=C1COc2cc(F)c(C(=O)N3CC(COc4ccc(Br)cc4F)C3)cc2N1` [Example 194, 6-((3-((4-bromo-2-fluorophenoxy)methyl)azetidin-1-yl)carbonyl)-7-fluoro-2H-1,4-benzoxazin-3(4H)-one], the inhibition at 10 µM amounted to 103%.

For the molecule `O=C1COc2cc(F)c(C(=O)N3CC(COc4ccc(Cl)cc4-c4ccc(F)cn4)C3)cc2N1` [Example 195, 6-((3-((4-chloro-2-(5-fluoropyridin-2-yl)phenoxy)methyl)azetidin-1-yl)carbonyl)-7-fluoro-2H-1,4-benzoxazin-3(4H)-one], the inhibition at 10 µM is 101%.

Consider `O=C1COc2cc(F)c(C(=O)N3CC(COc4ccc(Cl)cc4-c4ccc(Cl)cn4)C3)cc2N1` [Example 196, 6-((3-((4-chloro-2-(5-chloropyridin-2-yl)phenoxy)methyl)azetidin-1-yl)carbonyl)-7-fluoro-2H-1,4-benzoxazin-3(4H)-one], for which the inhibition at 10 µM was determined as 94%.

Consider `Cc1cccc(-c2cc(Cl)ccc2OCC2CN(C(=O)c3cc4c(cc3F)OCC(=O)N4)C2)n1` [Example 197, 6-((3-((4-chloro-2-(6-methylpyridin-2-yl)phenoxy)methyl)azetidin-1-yl)carbonyl)-7-fluoro-2H-1,4-benzoxazin-3(4H)-one], for which the inhibition at 10 µM was 104%.

In the case of `O=C1COc2cc(F)c(C(=O)N3CC(COc4ccc(Cl)cc4-c4cccnc4Cl)C3)cc2N1` [Example 198, 6-((3-((4-chloro-2-(2-chloropyridin-3-yl)phenoxy)methyl)azetidin-1-yl)carbonyl)-7-fluoro-2H-1,4-benzoxazin-3(4H)-one], the inhibition at 10 µM is 100%.

Turning to `CCc1ncccc1-c1cc(Cl)ccc1OCC1CN(C(=O)c2cc3c(cc2F)OCC(=O)N3)C1` [Example 199, 6-((3-((4-chloro-2-(2-ethylpyridin-3-yl)phenoxy)methyl)azetidin-1-yl)carbonyl)-7-fluoro-2H-1,4-benzoxazin-3(4H)-one], the inhibition at 10 µM was found to be 103%.

In the case of `O=C1COc2cc(F)c(C(=O)N3CC(COc4ccc(Cl)cc4-c4cncc(F)c4)C3)cc2N1` [Example 200, 6-((3-((4-chloro-2-(5-fluoropyridin-3-yl)phenoxy)methyl)azetidin-1-yl)carbonyl)-7-fluoro-2H-1,4-benzoxazin-3(4H)-one], the inhibition at 10 µM turned out to be 102%.

As to `O=C1COc2cc(F)c(C(=O)N3CC(COc4ccc(Cl)cc4-c4cncc(Cl)c4)C3)cc2N1` [Example 201, 6-((3-((4-chloro-2-(5-chloropyridin-3-yl)phenoxy)methyl)azetidin-1-yl)carbonyl)-7-fluoro-2H-1,4-benzoxazin-3(4H)-one], the inhibition at 10 µM was 101%.

For `Cc1cncc(-c2cc(Cl)ccc2OCC2CN(C(=O)c3cc4c(cc3F)OCC(=O)N4)C2)c1` [Example 202, 6-((3-((4-chloro-2-(5-methylpyridin-3-yl)phenoxy)methyl)azetidin-1-yl)carbonyl)-7-fluoro-2H-1,4-benzoxazin-3(4H)-one], the inhibition at 10 µM stood at 100%.

In the case of `Cc1ccncc1-c1cc(Cl)ccc1OCC1CN(C(=O)c2cc3c(cc2F)OCC(=O)N3)C1` [Example 203, 6-((3-((4-chloro-2-(4-methylpyridin-3-yl)phenoxy)methyl)azetidin-1-yl)carbonyl)-7-fluoro-2H-1,4-benzoxazin-3(4H)-one], the inhibition at 10 µM was 103%.

As for `O=C1COc2cc(F)c(C(=O)N3CC(COc4ccc(Cl)cc4-c4ccc(F)nc4)C3)cc2N1` [Example 204, 6-((3-((4-chloro-2-(6-fluoropyridin-3-yl)phenoxy)methyl)azetidin-1-yl)carbonyl)-7-fluoro-2H-1,4-benzoxazin-3(4H)-one], the inhibition at 10 µM was found to be 100%.
